Assay results taken from patent publication EP3732162B1, “NITROALKENE NON STEROIDAL ANTI-INFLAMMATORY DRUGS (NA-NSAIDS) AND METHODS OF TREATING INFLAMMATION RELATED CONDITIONS” (Institut Pasteur De Montevideo, priority 2017, dated 2019).

Experiments:
[1] = Adduct formation with beta mercaptoethanol (BME), followed spectrophotometrically
Text: While not wishing to be bound by theory, during inflammation, reversible reactions with nucleophilic molecules such as NF-κB and the inflammasomes have shown to modify inflammatory response. One method to identify reactions with nucleophilic targets at physiological pH is by screening with beta mercaptoethanol ("BME"). […] Thus, the nitroalkene NSAIDs within the scope of the present invention react with nucleophilic molecules such as NF-κB and the inflammasomes to modify inflammatory response.

NF-κB = experiment: IL-1β secretion by ELISA in PMA-differentiated macrophages, compound given together with LPS (1st signal); assay type: cell-based
Experimental: (§1) In order to compare benzoic acid (BA) and nitroalkene benzoic acid (BANA) over NF-κB and inflammasome function in macrophages, TUP-1 cells were differentiated into macrophages with PMA (200 nM, 48 h). Cells were then stimulated with LPS (250ng/mL) and with ATP (5mM, 45 minutes). Together with LPS (1st signal, FIG. 6) or ATP (2nd signal, FIG. 7), cells were treated with Benzoic acid (30 µM) or BANA (30 µM). Supernatants were collected and IL-1β secretion was measured by ELISA. […] Thus, BANA inhibits both the generation of the inflammasome, and inhibits the inflammasome itself.
(§2) Further exemplary studies were performed with Flufenamate (FluFE) and nitroalkene flufenamate (FluFENA). In order to study the effect of Flufenamate (FluFE) and FluFENA over NF-κB and inflammasome function in macrophages, THP-1 cells were differentiated into macrophages with PMA (200 nM, 48 h). Cells were stimulated with LPS (250ng/mL) and then with ATP (5mM, 45 minutes). Together with LPS (1st signal, FIG. 8) or ATP (2nd signal, FIG. 9), cells were treated with FluFE (5 µM) or FluFENA (5 µM). Supernatant were collected and IL-1β secretion was measured by ELISA. Cell viability was assessed by the MTT assay.
(§3) To study the effect of ibuprofen and IBUNA over NF-xB and inflammasome function in macrophages, TUP-1 cells were differentiated into macrophages with PMA (200 nM, 48 h). Cells were stimulated with LPS (250ng/mL) and then with ATP (5mM, 45 minutes). Together with LPS (1st signal, FIG. 10) or ATP (2nd signal, FIG. 11), cells were treated with Ibuprofen (20 µM) or IBUNA (20 µM). Supernatant were collected and IL-1β secretion was measured by ELISA.

inflammasome = experiment: IL-1β secretion by ELISA in PMA-differentiated macrophages, compound given together with ATP (2nd signal); assay type: cell-based
Experimental: as §1, §2, §3

IL-1β = experiment: In vivo model of peritonitis (LPS-induced inflammatory response), IL-1β by ELISA; conditions: mice, 50 mg/kg IP 1 hour before LPS 10 mg/kg IP for 2 hours; as opposed to BA; FIG. 12
Experimental: Mice were treated with BANA, Benzoic Acid (50 mg/kg, IP) or the vehicle (100 mM Phosphate buffer 10% DMSO) for 1 hour. Then were injected with LPS (10 mg/kg, IP) or PBS for 2 hours. Mice were collected for peritoneal wash and blood samples were extracted. The peritoneal wash and plasma were stored to measure IL-1β by ELISA. The values are show as mean ± SD from three mice per condition and we have used the statistic test one-way ANOVA with Bonferroni.

O=C(O)c1ccc(/C=C/[N+](=O)[O-])cc1 [BANA, (E)-4-(2-nitrovinyl)benzoic acid]
nitroalkene NSAID adduction with BME (absorbance) ([1]; 10 µM BANA with 30 µM BME, 100 mM phosphate buffer pH 7.4, FIG. 4): absorbance increase | IL-1β secretion (NF-κB; TUP-1 cells differentiated with PMA, 30 µM together with LPS 250ng/mL (1st signal), then ATP 5mM 45 minutes, vs Benzoic acid 30 µM, FIG. 6): inhibition of IL-1β secretion | IL-1β secretion (inflammasome; TUP-1 cells differentiated with PMA, LPS 250ng/mL, then 30 µM together with ATP 5mM 45 minutes (2nd signal), vs Benzoic acid 30 µM, FIG. 7): inhibition of IL-1β secretion | level of pro-inflammatory cytokine IL-1β secretion in blood plasma (IL-1β): marked decrease | level of pro-inflammatory cytokine IL-1β secretion in peritoneal wash (IL-1β): marked decrease

O=C(O)c1cc(/C=C/[N+](=O)[O-])ccc1Nc1cccc(C(F)(F)F)c1 [FluFENA, (E)-5-(2-nitrovinyl)-2-((3-(trifluoromethyl)phenyl)amino)benzoic acid]
nitroalkene NSAID adduction with BME (absorbance) ([1]; 12.5 µM FluFENA with 125 µM BME, 100 mM phosphate buffer pH 7.4, FIG. 3): absorbance increase | IL-1β secretion (NF-κB; THP-1 cells differentiated with PMA, 5 µM together with LPS 250ng/mL (1st signal), compared with FluFE 5 µM, FIG. 8): unexpected advantage | IL-1β secretion (inflammasome; THP-1 cells differentiated with PMA, 5 µM together with ATP 5mM 45 minutes (2nd signal), compared with FluFE 5 µM, FIG. 9): unexpected advantage

CC(C)Cc1ccc(C(C)C(=O)O)cc1/C=C/[N+](=O)[O-] (stereo not shown) [IBUNA, (E)-2-(4-isobutyl-3-(2-nitrovinyl)phenyl)propanoic acid]
nitroalkene NSAID adduction with BME (absorbance) ([1]; 50 µM IBUNA with 250 µM BME, 100 mM phosphate buffer pH 7.4, FIG. 2): absorbance increase | IL-1β secretion (NF-κB; TUP-1 cells differentiated with PMA, 20 µM together with LPS 250ng/mL (1st signal), compared with Ibuprofen 20 µM, FIG. 10): unexpected superiority | IL-1β secretion (inflammasome; TUP-1 cells differentiated with PMA, 20 µM together with ATP 5mM 45 minutes (2nd signal), compared with Ibuprofen 20 µM, FIG. 11): unexpected superiority

CC(=O)Nc1ccc(O)c(/C=C/[N+](=O)[O-])c1 [PARANA, (E)-N-(4-hydroxy-3-(2-nitrovinyl)phenyl)acetamide]
nitroalkene NSAID adduction with BME (absorbance) ([1]; 30 µM PARANA with 30 µM BME, 100mM phosphate buffer pH 7.4, FIG. 1): absorbance increase

O=[N+]([O-])/C=C/c1ccc(O)cc1 [PheNA, (E)-4-(2-nitrovinyl)phenol]
nitroalkene NSAID adduction with BME (absorbance) ([1]; 50 µM PheNA with 500 µM BME, 100 mM phosphate buffer pH 7.4, FIG. 5): absorbance increase
